Experimental data from paper PMC3556010, “A new strategy based on pharmacophore-based virtual screening in adenosine deaminase inhibitors detection and in-vitro study” (DARU Journal of Pharmaceutical Sciences, 2012).
pIC50, pKi: −log10 of the molar value.

Columns and labels:
[1] = target: T1, Adenosine deaminase (from bovine spleen) (Bos taurus, UniProt P56658); assay: ADA enzyme inhibition by UV-vis spectrophotometry (Kaplan method, absorbance at 265 nm); format: biochemical; conditions: for pIC50: pH 7.5, 37°C, phosphate buffer; for pKi: secondary plot of apparent Km versus [I], inhibitor 0–130 μM, substrate 20–124 μM, 37°C, pH 7.5, read-out: Ki (inhibition constant)
T1 construct: Adenosine deaminase (from bovine spleen in 3.2 M ammonium sulfate) was purchased from Sigma; purchased Sigma (St. Louis, MO, USA); host or cells: bovine spleen (tissue-derived)
T1 sequence (P56658 1-363): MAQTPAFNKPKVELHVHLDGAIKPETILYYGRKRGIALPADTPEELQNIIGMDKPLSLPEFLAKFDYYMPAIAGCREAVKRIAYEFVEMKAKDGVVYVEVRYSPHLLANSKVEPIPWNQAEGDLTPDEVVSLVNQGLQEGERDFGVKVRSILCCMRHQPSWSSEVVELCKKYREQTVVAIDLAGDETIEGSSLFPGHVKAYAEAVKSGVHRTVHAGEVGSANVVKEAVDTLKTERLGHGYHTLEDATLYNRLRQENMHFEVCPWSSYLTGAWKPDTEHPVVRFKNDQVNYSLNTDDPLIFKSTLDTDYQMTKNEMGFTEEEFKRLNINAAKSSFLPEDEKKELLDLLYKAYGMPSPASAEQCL
Experimental: Adenosine deaminase (from bovine spleen in 3.2 M ammonium sulfate) was purchased from Sigma (St. Louis, MO, USA). Phosphate buffer 50 mM, pH 7.5, was used as media which is comprised NaH2PO4 and Na2HPO4 and are from Merck. In addition, other material such as solvents, were purchased from this company.
All of biological samples were prepared with double distilled water. The adenosine stock solution prepared and was used in concentration range of 0.01-0.4 mM. The concentration of enzyme in the assay mixture 50 mM sodium phosphate buffer, was 0.9 nM with a final volume of 1ml. Enzymatic activities were assayed by UV–vis spectrophotometry (Shimadzu-3100, Japan) based on Kaplan Method to follow the decrease in absorbance at 265 nm resulting from the conversion of adenosine to inosine.
For accurate determination of kinetic parameters, the IC50 values were evaluated, and then the enzyme inhibition was studied in 180 s intervals. […] In a competitive inhibition; Vmax is unaltered, whereas Km is increased. The slope of a competitive plot is equal to:
Slope=KmI/Vmax.Ki+Km/Vmax
All experiments performed in 37°C and phosphate buffer, pH=7.5.

[2] = target: T2, Adenosine deaminase (Bos taurus, UniProt P56658); assay: Fluorescence spectroscopy of ADA 3-D structure changes; parameters: species or system bovine; conditions: excitation 290 nm, pH 7.5, 37°C; inhibitor 10 μM
T2 construct: Adenosine deaminase (from bovine spleen in 3.2 M ammonium sulfate) was purchased from Sigma; purchased Sigma (St. Louis, MO, USA); host or cells: bovine spleen (tissue-derived)
T2 sequence (P56658 1-363): T1 sequence (P56658 1-363)
Experimental: Fluorescence study has been done with fluorescent spectroscopy (Hitachi MPF-4, Japan), which its cell length is 1cm. In this method, the exciting wavelength was adjusted in 290 nm and the emission was studied in range of 300–400 nm for possible enzyme 3-D structure changes. In this experiment, different concentrations of inhibitors (5–100 μM) were investigated in the presence of ADA (0.01unit) by final volume of 400 μL with phosphate buffer.
To investigate changes in enzyme 3-D structure at different concentration of inhibitors (10–100 μM), the fluorescence experiments were done in excitation wavelength of 290 nm, which is due to tryptophan amino acids in the active site of enzyme Figure 5.
Figure 5 The fluorescence spectra of adenosine deaminase at pH=7.5 and T=37°C in the presence of different concentrations of three inhibitors: 10–100 μM.

[3] = target: adenosine deaminase; conditions: cited from earlier work

Row | Compound | pIC50 [1] | pKi [1] | enzyme structural changes by fluorescence intensity [2] | inhibition mechanism ([1]; kinetic studies) | pKi [3]
1 | Cn1c([N+](=O)[O-])cnc1-c1nnco1 [Compound 1] | 3.99 | 4.20 | – | – | –
2 | Cn1c([N+](=O)[O-])cnc1C#N [Compound 2] | 4.39 | 4.70 | sever structural changes | competitive | –
3 | erythro-9-(2-hydroxy-3-nonyl) adenine [EHNA] | – | – | – | – | 7.43
